Columns and labels:
P. falciparum K1 strain [1] = experiment: P. falciparum K1 dose-response, 72 h, SYBR Green-based plate reader assay; type: cell-based; details: Plasmodium falciparum
Protocol: We set up drug efficacy assays for the eight lead compounds 1–5, 12–14 (selected based on the best antimalarial activities) (Table 1), with 72 h incubation on parasitised culture. A dose–response experiment was initiated on 1% synchronous culture at the ring stages of the P. falciparum K1 strain. The selected compounds were tested at three-fold serial dilutions from 6.86 to 5000 nM. […] The selectivity indices (IC50 human cells/IC50 parasites) were calculated based on the 72 h exposure studies and are presented in Table 2.
(§1) In total, 1% of infected RBCs at the ring or trophozoites stage was exposed to nine dilutions (four-fold serial dilution) of compounds from 50 mM stock solutions in DMSO. A total of 100 µL of culture volume was added in 96-well plates with 100 µL drug dilutions. Plates were either incubated for 48 h or 72 h at 37 °C, 5% CO2, 5% O2 in N2. Following the incubation, 150 µL of the medium was carefully removed and 150 µL of the 5× SYBR Green solution (prepared by adding 2 µL of 10,000× SYBR Green in 4 mL of PBS) was added to each well. Plates were kept in the dark for 45 min. Fluorescence intensity was measured using a microplate reader (Genius Tecan) with an excitation of 485 nm and an emission of 535 nm.
(§2) IC50 values were determined using Graph Pad Prism 5.0. Values were calculated using non-linear regression by using log-transformed drug concentration plotted against dose–response. Parasitaemia was calculated and normalised relative to the response on the controls (cultures without drug).

[2] = MTT cytotoxicity assay, MDBK; type: cell-based, bovine; details: bovine, MDBK cells; MTT, 5 days; read-out: Cell Toxicity IC50 ± SE MDBK
Protocol: (§3) An MTT (3-(4,5-dimethylthiazol-2-yl)-2,5-diphenyl tetrazolium bromide) assay was performed to investigate the toxicity of the 4-aminoquinoline hydrazone compounds. HepG2 and MDBK cells were incubated with a two-fold serial dilution at dose ranges from 0.39 to 25 µM for 5 days.
(§4) Human hepatoma (HepG2) and the Madin–Darby bovine kidney (MDBK) cell lines were purchased from American Type Culture Collection (ATCC), USA. The MDBK cell line was cultured with Dulbecco’s Modified Eagle’s Medium (DMEM) containing 4.5 g/L (+)-D-glucose and L-glutamine, while the HepG2 cell line was cultured with RPMI 1640 containing 2 mM L-glutamine and HEPES. The culture medium was supplemented with 10% Fetal Bovine Serum (FBS) and 1% penicillin. Cells were maintained in the presence of 5% CO2 atmosphere at 37 °C. The assay was carried out on a 96-well plate, with each well containing 4 × 10^3 cells. Plates were firstly incubated for 24 h at 37 °C to ensure cell adherence. The cells were then treated with 100 µL of the drug solution prepared at various concentrations and further incubated for 5 days. After the incubation period, 50 µL of the MTT (3-(4,5-dimethylthiazol-2-yl)-2,5-diphenyltetrazolium bromide, Sigma, UK) solution was added to each well and incubated for a further 3 h. The MTT solution and medium were aspirated, 150 µL of DMSO was added to each well, and the results were read on the Ascent plate reader.

MDBK cells = experiment: MTT cytotoxicity assay, MDBK; type: cell-based, bovine; details: MDBK IC50 (5 days) / K1 72 h IC50; IC50 = 25 μM assumed for compounds 5 and 13
Protocol: as §3, §4

P. falciparum K1 strain [3] = experiment: P. falciparum K1 asexual growth inhibition, 48 h, SYBR Green-based plate reader assay; type: cell-based, Plasmodium falciparum; details: K1 strain, trophozoite stage, 48 h incubation; for IC50: Plasmodium falciparum, read-out: Plasmodium IC50 ± SE
Protocol: Sixteen 4-amino-6-methoxy-quinoline hydrazone compounds (see Figure S1, Supplementary Materials for full structures), with methyl and phenyl substituents at the 2-position (R = Me, Ph) and various substituents at R’ (Table 1), were tested for their antimalarial activities. A 1% parasitised culture at the trophozoite stage was treated with the compounds for 48 h at concentrations of 0.003050–200 µM (four-fold serial dilution) against the P. falciparum K1 strain, and the growth was measured using the SYBR Green-based plate reader assay.
as §1, §2

P. falciparum Dd2 strain = experiment: P. falciparum Dd2 dose-response, 72 h, SYBR Green-based plate reader assay; type: cell-based; details: Plasmodium falciparum, ring stage, read-out: Dd2 IC50 ± SE
Protocol: (§5) The lead compounds 1 and 2 were further evaluated against the chloroquine-resistant P. falciparum Dd2 strain and chloroquine-sensitive P. falciparum 3D7. The drug activity assay was initiated on 1% infected blood at ring stages of the parasites at four-fold serial dilution from 0.00305 to 200 µM. The growth was measured after 72 h using an SYBR Green-based plate reader assay.
as §1

P. falciparum 3D7 = P. falciparum 3D7 dose-response, 72 h, SYBR Green-based plate reader assay; type: cell-based; details: Plasmodium falciparum, ring stage, read-out: 3D7 IC50 ± SE
Protocol: as §5, §1

[4] = MTT cytotoxicity assay, HepG2; type: cell-based, Human; details: human, HepG2 cells; MTT, 5 days; read-out: Cell Toxicity IC50 ± SE HepG2
Protocol: as §3, §4

HepG2 cells = experiment: MTT cytotoxicity assay, HepG2; type: cell-based, Human; details: HepG2 IC50 (5 days) / K1 72 h IC50; IC50 = 25 μM assumed for compound 13
Protocol: as §3, §4

P. falciparum K1 strain [5] = experiment: Stage specificity assay; type: cell-based, Plasmodium falciparum; details: 50–100 times IC50, 24 h exposure, wash-out, further 24 h
Protocol: The stage specificity was evaluated by conducting drug susceptibility experiments on synchronous cultures either at early rings or schizonts stages (as detailed in the Section 4). […] Cultures were exposed to drug treatment for 24 h, after which the compounds were washed out and incubated in complete RPMI medium for a further 24 h.
P. falciparum K1 was synchronised twice with 5% sorbitol at 0 h and 31 h to obtain early rings (up to 3 h old). In order to obtain late trophozoites to early schizonts, the culture was synchronised twice at 0 h and 6 h. Each synchronous stage was diluted to 1% parasitaemia. […] The dilution ranged from 1.6 to 100× fold of the previously determined IC50 of each compound in a standard 48 h assay. After a 24 h incubation period, the plates were washed 4 times resulting in about a 100-fold dilution of the free compound. The plates were further incubated for an additional 24 h at 37 °C and analysed using SYBR Green staining assays as previously described.

[6] = ring stage, 72 h incubation, read-out: Plasmodium IC50 ± SE

COc1ccc2nc(C)cc(N/N=C/c3ccc(F)cc3)c2c1 [Compound 1]
IC50 (P. falciparum K1 strain [1]; 72 h, read-out: IC50): 0.025 µM
IC50 (P. falciparum K1 strain [1]; [6]): 0.0257 µM
IC50 at 5 days [2]: 3.77 ± 1.5 µM
Selectivity Indices (MDBK) (MDBK cells): 147
IC50 (P. falciparum K1 strain [3]): 0.612 ± 0.35 µM
IC50 (P. falciparum Dd2 strain): 0.133 µM
IC50 (P. falciparum 3D7): 0.183 µM
IC50 at 5 days [4]: 0.872 ± 0.79 µM
Selectivity Indices (HepG2) (HepG2 cells): 34

COc1ccc2nc(C)cc(N/N=C/c3cccc(OC)c3O)c2c1 [Compound 5]
IC50 (P. falciparum K1 strain [1]; [6]): 0.174 ± 0.03 µM
IC50 at 5 days [2]: > 25 µM
Selectivity Indices (MDBK) (MDBK cells): >143
IC50 (P. falciparum K1 strain [3]): 3.82 µM
IC50 at 5 days [4]: 6.73 ± 0.73 µM
Selectivity Indices (HepG2) (HepG2 cells): 39
Inhibition of parasitaemia growth, schizont stage (P. falciparum K1 strain [5]): more than 25%

COc1ccc2nc(C)cc(N/N=C/c3c[nH]cn3)c2c1 [Compound 6]
IC50 at 5 days [2]: 11.7 ± 2.5 µM
IC50 (P. falciparum K1 strain [3]): 48.8 µM
IC50 at 5 days [4]: 7.26 ± 1 µM

COc1ccc2nc(C)cc(N/N=C/c3ccc([N+](=O)[O-])cc3)c2c1 [Compound 7]
IC50 at 5 days [2]: 6.68 ± 1.7 µM
IC50 (P. falciparum K1 strain [3]): 20.1 µM
IC50 at 5 days [4]: 1.69 µM

COc1ccc2nc(C)cc(N/N=C/c3ccc(O)cc3)c2c1 [Compound 8]
IC50 at 5 days [2]: 3.73 ± 1.2 µM
IC50 (P. falciparum K1 strain [3]): 22.3 µM
IC50 at 5 days [4]: 1.97 ± 0.42 µM

COc1ccc2nc(C)cc(N/N=C/c3ccc(C(=O)O)cc3)c2c1 [Compound 9]
IC50 at 5 days [2]: > 25 µM
Plasmodium IC50 ± SE (P. falciparum K1 strain [3]): inactive
IC50 (P. falciparum K1 strain [3]): > 200 µM
IC50 at 5 days [4]: > 25 µM

COc1ccc2nc(C)cc(N/N=C/c3cccc(O)c3)c2c1 [Compound 10]
IC50 at 5 days [2]: 9.71 ± 3.5 µM
IC50 (P. falciparum K1 strain [3]): 18.9 µM
IC50 at 5 days [4]: 2.64 ± 0.2 µM

COc1ccc2nc(C)cc(N/N=C/c3cc(O)cc(O)c3)c2c1 [Compound 11]
IC50 at 5 days [2]: > 25 µM
IC50 (P. falciparum K1 strain [3]): 35.9 ± 43 µM
IC50 at 5 days [4]: 11.1 ± 2.9 µM

COc1ccc2nc(-c3ccccc3)cc(N/N=C/c3cccc(OC)c3O)c2c1 [Compound 12]
IC50 (P. falciparum K1 strain [1]; [6]): 0.133 ± 0.06 µM
IC50 at 5 days [2]: 6.6 µM
Selectivity Indices (MDBK) (MDBK cells): 50
IC50 (P. falciparum K1 strain [3]): 5.67 ± 13 µM
IC50 at 5 days [4]: 1.8 ± 0.78 µM
Selectivity Indices (HepG2) (HepG2 cells): 14

COc1ccc2nc(-c3ccccc3)cc(N/N=C/c3ccc([N+](=O)[O-])cc3)c2c1 [Compound 14]
IC50 (P. falciparum K1 strain [1]; [6]): 0.176 ± 0.06 µM
IC50 at 5 days [2]: 4.24 ± 1 µM
IC50 (P. falciparum K1 strain [3]): 2.2 ± 1.5 µM
IC50 at 5 days [4]: 0.89 ± 0.13 µM
Selectivity Indices (HepG2) (HepG2 cells): 5
Inhibition of parasitaemia growth, schizont stage (P. falciparum K1 strain [5]): more than 25%

COc1ccc2nc(-c3ccccc3)cc(N/N=C/c3c[nH]cn3)c2c1 [Compound 15]
IC50 at 5 days [2]: 9.31 ± 3.5 µM
IC50 (P. falciparum K1 strain [3]): 28.3 ± 29 µM
IC50 at 5 days [4]: 2.21 ± 0.15 µM

COc1ccc2nc(-c3ccccc3)cc(N/N=C/c3ccc(N(C)C)cc3)c2c1 [Compound 16]
IC50 at 5 days [2]: 6.24 µM
IC50 (P. falciparum K1 strain [3]): 8.06 ± 4.5 µM
IC50 at 5 days [4]: 4.15 ± 2.4 µM

From article PMC10534891, “Evaluation of 4-Aminoquinoline Hydrazone Analogues as Potential Leads for Drug-Resistant Malaria” (Molecules, 2023)
